In article PMC6882900, “Pharmacokinetics of Micafungin in Critically Ill Patients” (Scientific Reports, 2019):
Values after ≈ are worked out from the molar mass of the structure shown. Numbered stars: 1 amine (or outer) side, 2 acyl side, 3 side chain; on linkers, the order of the positions; unused ones are H or OH. Bridge positions count the residues as written; N and C are the ends. Square brackets hold non-standard residues; d marks the D form. Peptide text beside a SMILES is read from it. * marks the point of attachment. hTyr(3S-OH,4S-OH,3'-OSO3H) = N[C@H](C(=O)O)[C@H](O)[C@@H](O)c1ccc(O)c(OS(=O)(=O)O)c1; Orn(4R-OH,5R-OH) = O=C([C@H](C[C@@H](O)[C@@H](O)N[*:3])N[*:1])[*:2]; Pro(3S-OH,4S-Me) = C[C@H]1CN[C@H](C(=O)O)[C@H]1O; X1 = CCCCCOc1ccc(-c2cc(-c3ccc(C(=O)*)cc3)no2)cc1; Gln(3R-OH) = NC(=O)C[C@@H](O)[C@H](N)C(=O)O; Hyp = O=C(O)[C@@H]1C[C@@H](O)CN1

How the values were obtained:
[1] = test system: C. glabrata; experiment: Pharmacodynamic target evaluation (AUC/MIC) in the study population; assay type: in vivo, Candida glabrata; settings: fixed dose 100 mg once daily, post-hoc AUC 0-24 h per patient and day
Source text: (§1) The European Committee on Antimicrobial Susceptibility Testing (EUCAST) established the guideline for micafungin and Candida ssp. with species related clinical breakpoints for non-resistant strains. These breakpoints were used as surrogate for the minimal inhibitory concentration (MIC) for C. albicans, C. glabrata and C. parapsilosis. Proposed MICs are […], respectively.
(§2) Using the previously established population pharmacokinetic model, the AUC for each patient on each day of therapy was determined.

[2] = test system: C. glabrata; parameters: method as in EUCAST; settings: ref EUCAST; cited from earlier work
[3] = test system: C. parapsilosis; settings: non-resistant strains; cited from earlier work
Source text: as §1

[4] = test system: C. albicans; settings: non-resistant strains; cited from earlier work
Source text: as §1

[5] = test system: C. parapsilosis; parameters: method as in EUCAST; settings: ref EUCAST; cited from earlier work
[6] = test system: C. albicans; parameters: method as in EUCAST; settings: ref EUCAST; cited from earlier work
[7] = Population pharmacokinetic modelling of micafungin in critically ill patients (NONMEM, plasma samples); assay type: in vivo, human
Source text: This is a non-interventional study conducted in critically ill adult patients treated in the intensive care units of the Department of Anaesthesiology, Intensive Care Medicine and Pain Therapy of the University Hospital Muenster in Germany. The collection of data and blood samples was approved by the ethics committee of the University of Muenster (Study Code 06-AnIt-11). […] Written informed consent was obtained from all patients or their representatives.
The study included 36 adult patients. Patient demographics and other clinical parameters were collected from the electronic patient charts of the intensive care unit. All patients received 100 mg micafungin intravenously once daily either as empiric or targeted therapy of suspected or proven infection. The decision to begin or end therapy was made by the physicians in charge of the intensive care units irrespective of the pharmacologic study.
Blood samples were collected from indwelling arterial catheters for analysis of micafungin concentrations. On day 1, plasma micafungin concentration was determined at 1, 4, 8, 12, 16 and 20 hours post application and as a trough level immediately before the next dose of micafungin after 24 hours. From day two of therapy, peak levels one hour after infusion and trough levels were collected.
Blood samples were exclusively taken from arterial lines into ethylenediaminetetraacetic acid (EDTA)-containing sample vials tubes (S-Monovette® 2.7 ml K3E, Sarstedt, Nümbrecht, Germany). Samples were immediately transported to the in-house laboratory and plasma was separated by centrifugation at 1600 x g (10 min) and kept and frozen at −80 °C until analysis.
Micafungin in human plasma was analyzed with reversed-phase high-performance liquid chromatography. 200 µl serum, 20 µl internal standard solution (anidulafungin 1 mg/ml in water), 20 µl 30% ZnSO4 x7H2O (w/v) in water and 700 µl methanol were vortex-mixed (5 sec) followed by centrifugation at 800 g for 3 min. 50 µl of the supernatant was injected on a 125 liquid chromatograph (Beckman Coulter GmbH, Krefeld, Germany) interfaced with a model 168 diode array detector. Chromatographic conditions: mobile phase: acetonitrile/50 mM ammonium acetate buffer pH 4.6, 50:50 (v/v); flow rate 1 ml/min at 45 °C; absorbance detection 271 nm; column: XTerra RP18, 3.5 µm, 150 × 4.6 mm (Waters GmbH, Eschborn, Germany).
Model building was performed using NONMEM (Version 7.3; ICON Development Solutions, Ellicott City, MD) with the ADVAN 6 subroutine and the FOCE + I estimation method. Visual predictive checks (pcVPC) and stepwise covariate model building (SCM) were performed with the PsN module (Version 4.6.0)[25]. Graphical output was created in R (version 3.4.0; R foundation for statistical computing, Vienna, Austria) with additional use of the Xpose package (version 4.5.3)[26].
The basic structural model was tested with the following compositions: One to three compartments with linear clearance, nonlinear (Michaelis Menten) clearance and a combination of both were tested.
As categorical covariate, sex was tested. Covariate influence was tested on central and peripheral volumes of distribution, and clearance. Covariate testing was performed using stepwise covariate modelling (SCM) in PsN with a 5% forward inclusion and 1% backward elimination criterion.

[8] = test system: C. albicans; experiment: Pharmacodynamic target evaluation (AUC/MIC) in the study population; assay type: in vivo, Candida albicans; settings: fixed dose 100 mg once daily, post-hoc AUC 0-24 h per patient and day
Source text: as §1, §2

[9] = test system: albumin; settings: primary binding protein is albumin; cited from earlier work
Experimental: (§3) Micafungin has a small volume of distribution (~119 ml/kg) and the drug is highly protein bound (>99%). The primary binding protein is albumin. […] The pharmacokinetics and pharmacodynamics of micaf ...

[10] = cited from earlier work
Experimental: as §3

[11] = test system: C. parapsilosis; experiment: Pharmacodynamic target evaluation (AUC/MIC) in the study population; assay type: in vivo, Candida parapsilosis; settings: fixed dose 100 mg once daily, post-hoc AUC 0-24 h per patient and day
Source text: as §1, §2

[12] = final population PK model estimate, 36 critically ill adult patients, 100 mg i.v. once daily

SMILES: CCCCCOc1ccc(-c2cc(-c3ccc(C(=O)N[C@H]4C[C@@H](O)[C@@H](O)NC(=O)[C@@H]5[C@@H](O)[C@@H](C)CN5C(=O)[C@H]([C@H](O)CC(N)=O)NC(=O)[C@H]([C@H](O)[C@@H](O)c5ccc(O)c(OS(=O)(=O)O)c5)NC(=O)[C@@H]5C[C@@H](O)CN5C(=O)[C@H]([C@@H](C)O)NC4=O)cc3)no2)cc1 [micafungin] (X1-[Orn(4R-OH,5R-OH)]T[Hyp][hTyr(3S-OH,4S-OH,3'-OSO3H)][Gln(3R-OH)][Pro(3S-OH,4S-Me)]; lactam 1-C)
- Adequacy of AUC/MIC ratio against EUCAST breakpoint [1]: adequate therapy intensities
- AUC/MIC target to reach stasis [2]: 1283
- MIC (EUCAST breakpoint as surrogate) [3]: 2000 µg/mL (≈ 1570 µM)
- MIC (EUCAST breakpoint as surrogate) [4]: 16 µg/mL (≈ 12.6 µM)
- AUC/MIC target to reach stasis [5]: 285
- AUC/MIC target to reach stasis [6]: 2420
- Influence of renal replacement therapy on pharmacokinetics ([7]; CVVHDF, SLEDD, clearance and volumes of distribution): did not alter the pharmacokinetics
- Lower central volume of distribution in patients with SOFA >10 ([7]; categorical covariate effect, SOFA >10 vs less critically ill patients): 30.8%
- Lower clearance in patients with bilirubin >4 mg/dl ([7]; categorical covariate effect, bilirubin >4 mg/dl): 21.1%
- Central volume of distribution [7, 12]: 16.2 L
- Inter-compartmental clearance [7, 12]: 14.4 L/h
- Peripheral volume of distribution [7, 12]: 13.8 L
- clearance ([7]; human, iv, final population PK model estimate (two compartments, linear elimination), 36 critically ill adult patients, 100 mg i.v. once daily, plasma, HPLC-UV): 26 mL/min
- Accumulation of micafungin in plasma ([7]; up to 10 days of treatment, 100 mg i.v. once daily): No accumulation
- Adequacy of AUC/MIC ratio against EUCAST breakpoint [8]: adequate therapy intensities
- Protein bound [9]: > 99%
- Volume of distribution [10]: ~ 119 ml/kg
- Linearity of pharmacokinetics ([10]; daily doses between 12.5 mg and 200 mg as well as 3 mg/kg and 8 mg/kg): Linear pharmacokinetics
- Adequacy of AUC/MIC ratio against EUCAST breakpoint [11]: does not seem suitable
